From PubChem BioAssay AID2060363 (Molecular Pharmacology Branch, DTP, NCI, 2025)

Test system: 156681-154-R-J1-PDC tumor spheroids, viability % test/control
Assay: Anticancer human tumor 156681-154-R-J1-PDC patient-derived melanoma cell line growth inhibition [TAK]
Settings: spheroids with HUVEC and MSC; for IC50: curve of first compound; for viability, T/C: stronger effect = lower value
How it was run: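 Spheroids of 60% malignant cells, 25% HUVEC and 15% hMSC were exposed to targeted agents combined with TAK-243 or ipatasertib. Concentrations started at or near clinical Cmax (10 microM if unknown) and descended in half-log steps.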

[1] = second compound 0.3 µM, first compound 0.0316 µM
[2] = second compound 0.3 µM, first compound 0.1 µM
[3] = second compound 0.3 µM, first compound 0.316 µM
[4] = second compound 0.3 µM, first compound 1 µM
[5] = second compound 0.949 µM, first compound 0.0316 µM
[6] = second compound 0.949 µM, first compound 0.1 µM
[7] = second compound 0.949 µM, first compound 0.316 µM
[8] = second compound 0.949 µM, first compound 1 µM
[9] = second compound 3 µM, first compound 0.0316 µM
[10] = second compound 3 µM, first compound 0.1 µM
[11] = second compound 3 µM, first compound 0.316 µM
[12] = second compound 3 µM, first compound 1 µM
[13] = second compound 9.49 µM, first compound 0.0316 µM
[14] = second compound 9.49 µM, first compound 0.1 µM
[15] = second compound 9.49 µM, first compound 0.316 µM
[16] = second compound 9.49 µM, first compound 1 µM
[17] = second compound 30 µM, first compound 0.0316 µM
[18] = second compound 30 µM, first compound 0.1 µM
[19] = second compound 30 µM, first compound 0.316 µM
[20] = second compound 30 µM, first compound 1 µM
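Further: spheroids exposed to compounds for 7 days before the endpoint.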

| SMILES | IC50 (second compound 0.3 µM) [nM] | IC50 (second compound 0.949 µM) [nM] | IC50 (second compound 3 µM) [nM] | IC50 (second compound 9.49 µM) [nM] | IC50 (second compound 30 µM) [nM] | viability, T/C [1] [%] | viability, T/C [2] [%] | viability, T/C [3] [%] | viability, T/C [4] [%] | viability, T/C [5] [%] | viability, T/C [6] [%] | viability, T/C [7] [%] | viability, T/C [8] [%] | viability, T/C [9] [%] | viability, T/C [10] [%] | viability, T/C [11] [%] | viability, T/C [12] [%] | viability, T/C [13] [%] | viability, T/C [14] [%] | viability, T/C [15] [%] | also measured |
| --- | --- | --- | --- | --- | --- | --- | --- | --- | --- | --- | --- | --- | --- | --- | --- | --- | --- | --- | --- | --- | --- |
| COc1c(OCCCN2CCOCC2)ccc2c3n(c(=NC(=O)c4cnc(N)nc4)nc12)CCN3 + CC(C)NCC(C(=O)N1CCN(c2ncnc3c2C(C)CC3O)CC1)c1ccc(Cl)cc1 | 65.8 | 51.2 | 16.8 | < 3.16 | < 3.16 | 70.6 | 38.3 | 11.3 | 2.36 | 61 | 33.3 | 6.84 | 1.52 | 40.7 | 21.7 | 3.81 | 1.29 | 18.5 | 9.13 | 2.36 | viability, T/C (second compound 0.3 µM, first compound 0.00316 µM): 94.6%; viability, T/C (second compound 0.3 µM, first compound 0.01 µM): 91.4%; viability, T/C (second compound 0.949 µM, first compound 0.00316 µM): 86.7%; viability, T/C (second compound 0.949 µM, first compound 0.01 µM): 85.1%; viability, T/C (second compound 3 µM, first compound 0.00316 µM): 67.4%; viability, T/C (second compound 3 µM, first compound 0.01 µM): 56.6%; viability, T/C (second compound 9.49 µM, first compound 0.00316 µM): 30.9%; viability, T/C (second compound 9.49 µM, first compound 0.01 µM): 35.9%; viability, T/C [16]: 1.24%; viability, T/C (second compound 30 µM, first compound 0.00316 µM): 13.6%; viability, T/C (second compound 30 µM, first compound 0.01 µM): 11.5%; viability, T/C [17]: 6.36%; viability, T/C [18]: 3.28%; viability, T/C [19]: 0.7%; viability, T/C [20]: 0.29% |
| Cc1nc(NC(=O)N2CCCC2C(N)=O)sc1-c1ccnc(C(C)(C)C(F)(F)F)c1 (stereo not given) + CC(C)NCC(C(=O)N1CCN(c2ncnc3c2C(C)CC3O)CC1)c1ccc(Cl)cc1 | > 10000 | 7110 | 1460 | < 31.6 | < 31.6 | 95.5 | 99 | 91 | 71.5 | 85.8 | 83.9 | 79 | 70.3 | 69.7 | 67.9 | 61.5 | 53.8 | 39.5 | 35.6 | 36.6 | viability, T/C (second compound 0.3 µM, first compound 3.16 µM): 67.3%; viability, T/C (second compound 0.3 µM, first compound 10 µM): 51.4%; viability, T/C (second compound 0.949 µM, first compound 3.16 µM): 62%; viability, T/C (second compound 0.949 µM, first compound 10 µM): 44.9%; viability, T/C (second compound 3 µM, first compound 3.16 µM): 42.5%; viability, T/C (second compound 3 µM, first compound 10 µM): 30.6%; viability, T/C [16]: 26.8%; viability, T/C (second compound 9.49 µM, first compound 3.16 µM): 17.2%; viability, T/C (second compound 9.49 µM, first compound 10 µM): 7.68%; viability, T/C [17]: 18%; viability, T/C [18]: 18%; viability, T/C [19]: 11.3%; viability, T/C [20]: 8.89%; viability, T/C (second compound 30 µM, first compound 3.16 µM): 3.83%; viability, T/C (second compound 30 µM, first compound 10 µM): 0.52% |
